Results reported in patent US20240150368A1, “ULK INHIBITORS AND METHODS OF USE THEREOF” (Deciphera Pharmaceuticals, LLC, priority 2022, published 2024).
pIC50: −log10 of the molar value.

Experiments:
ULK1 kinase = biological target: T1, ULK1 kinase (Homo sapiens, UniProt O75385, E37A/K38A); assay: Biochemical assay for ULK1 (coupled pyruvate kinase/lactate dehydrogenase assay); details: 1 mM ATP, 0.1 nM ULK1; read-out: ULK1 (inhibition of biochemical activity), IC50
T1 construct: (residues 1-283; ID NO: 1); purchased Beryllium
T1 sequence (O75385 1-283 E37A/K38A): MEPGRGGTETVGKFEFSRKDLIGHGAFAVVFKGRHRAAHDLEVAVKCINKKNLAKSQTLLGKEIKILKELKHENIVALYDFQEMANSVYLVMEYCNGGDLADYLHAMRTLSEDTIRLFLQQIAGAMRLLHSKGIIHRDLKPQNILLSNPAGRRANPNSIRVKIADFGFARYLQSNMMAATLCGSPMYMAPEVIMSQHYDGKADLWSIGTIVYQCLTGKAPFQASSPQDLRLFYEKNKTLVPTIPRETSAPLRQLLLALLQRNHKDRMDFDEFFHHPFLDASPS
Experimental: Biochemical Assay for ULK1 (SEQ. ID NO: 1)
Activity of ULK1 kinase was determined spectroscopically using a coupled pyruvate kinase/lactate dehydrogenase assay that continuously monitors the ATP hydrolysis-dependent oxidation of NADH (e.g., Schindler et al. Science (2000) 289: 1938-1942). Assays were conducted in 384-well plates (100 μL final volume) using 0.1 nM ULK1 (from Beryllium), 0.075 mM peptide substrate (YANWLAASIYLDGKKK), 1.5 units pyruvate kinase, 2.1 units lactate dehydrogenase, 1 mM phosphoenol pyruvate, 0.28 mM NADH and 1 mM ATP in assay buffer (100 mM Tris, pH 7.5, 15 mM MgCl2, 0.5 mM DTT, 0.004% (w/v) BSA, and 0.004% Triton X-100). Inhibition of ULK1 was measured by adding serial diluted test compound (final assay concentration of 1% DMSO). A decrease in absorption at 340 nm was monitored continuously for 6 h at 30° C. on a multi-mode microplate reader (BioTek). The reaction rate was calculated using the 2-3 h time frame. The reaction rate at each concentration of compound was converted to percent inhibition using controls (i.e., reaction with no test compound and reaction with a known inhibitor) and IC50 values were calculated using software routines in Prism (GraphPad software).

[1] = tested on: ULK kinase substrate ATG13 (pS318-ATG13) in A549 (KRAS mutant) cells; assay: pATG13 levels of mutant KRas A549 cells after treatment with ULK inhibitors in combination with trametinib (ELISA); type: cell-based, human
Experimental: Cellular Inhibition of ULK Kinase Substrate ATG13 Protein pATG13 Levels of Mutant KRas A549 Cells after Treatment with ULK Inhibitors in Combination with Trametinib
(§1) A549 (KRAS mutant) human lung cancer cells (6,000 cells/well) were added to a 384-well tissue-culture treated plate in 50 μL of pre-warmed DMEM medium supplemented with 10% characterized fetal bovine serum (Invitrogen, Carlsbad, CA), 100 units/mL penicillin G, and 100 μg/mL streptomycin and allowed to grow overnight at 37° C., 5% CO2, and 95% humidity. The following day, 10 μL of media containing trametinib or DMSO as a control was added to wells. The final concentration of trametinib in wells was 250 nM. A dose response of a test compound (0.6 μL per well) was added. DMSO (0.6 μL) was added to control wells. The plate was briefly shaken to mix wells and then incubated at 37° C. overnight. The next day, the media was aspirated and cells were washed with Dulbecco's Phosphate Buffered Saline (Gibco). Cells were lysed using MPER lysis buffer (Pierce, Rockford, IL) containing Halt Phosphatase and Protease Inhibitors (Pierce, Rockford, IL) and Phosphatase inhibitor cocktail 2 (Sigma, St. Louis, MO) at 4° C. for 10 min with shaking.
(§2) Cellular levels of phospho-Serine 318 ATG13 (pATG13) were measured via an ELISA method. Total ATG13 Antibody (Cell Signaling Cat #13273) was used to coat the wells. The plate was incubated at 4° C. overnight and washed with ELISA wash buffer (Biolegend Cat #421601). The wells were then blocked with assay diluent (Biolegend Cat #421203) for 1 h at rt. Plate wells were washed with ELISA wash buffer. Cell lysate was added to wells and incubated at rt for 2 h. Plate wells were washed with ELISA wash buffer. Biotinylated pS318-ATG13 antibody (Rockland Immunochemicals Cat #600-401-C49) was diluted in assay diluent and added to each well and incubated at rt for 1 h. Plate wells were washed with ELISA wash buffer. Streptavidin linked to horseradish peroxidase (Thermo Fisher Cat #21140) was diluted in assay diluent and added to each well and incubated at rt for 1 h. Plate wells were washed with ELISA wash buffer. High sensitivity TMB substrate (Biolegend Cat #421101) was added to each well and incubated at rt for 20 min. The reaction was stopped with 2N Sulfuric Acid. The plate was analyzed at on a plate reader measuring absorbance at 450 nm and 540 nm (background). Signal was calculated by first subtracting the background absorbance at 540 nm from the absorbance at 450 nm for each well. Next, the background corrected absorbance at 450 nm from blank wells was subtracted from test wells. Data was compared to control wells to determine % ATG13 phosphorylation. GraphPad Prism was used to calculate IC50 values.

[2] = tested on: ULK kinase substrate ATG13 (pS318-ATG13) in MiaPaCa-2 cells; assay: pATG13 levels of mutant KRas MiaPaCa-2 cells after treatment with ULK inhibitors in combination with trametinib (ELISA); type: cell-based, human
Experimental: pATG13 Levels of Mutant KRas MiaPaCa-2 Cells after Treatment with ULK Inhibitors in Combination with Trametinib
as §1, with “MiaPaCa-2” for “A549 (KRAS mutant)”, “pancreatic” for “lung”, “(10000” for “(6,000”, “G,” for “G, and”, “streptomycin, and 2.5% Horse Serum” for “streptomycin”, “minutes” for “min”
as §2, with “2.0N sulfuric acid.” for “2N Sulfuric Acid.”

LRRK2 kinase = biological target: T2, LRRK2 kinase (Homo sapiens, UniProt Q5S007); assay: Biochemical assay for LRRK2 (coupled pyruvate kinase/lactate dehydrogenase assay); details: 26.4 nM LRRK2, 1 mM ATP; read-out: LRRK2 (inhibition of LRRK2 kinase activity, IC50)
T2 construct: (residues 970-2528; ID NO; 3); purchased Thermo Fisher
Experimental: Biochemical Assay for LRRK2 (SEQ. ID NO. 3)
Activity of LRRK2 kinase was determined spectroscopically using a coupled pyruvate kinase/lactate dehydrogenase assay that continuously monitors the ATP hydrolysis-dependent oxidation of NADH (e.g., Schindler et al. Science (2000) 289: 1938-1942). Assays were conducted in 384-well plates (100 μL final volume) using 26.4 nM LRRK2 (Thermo Fisher), 0.1 mM peptide substrate (RLGRDKYKTLRQIRQ), 1.5 units pyruvate kinase, 2.1 units lactate dehydrogenase, 1 mM phosphoenol pyruvate, 0.28 mM NADH and 1 mM ATP in assay buffer (100 mM Tris, pH 7.5, 15 mM MgCl2, 0.5 mM DTT, 0.004% (w/v) BSA, and 0.004% Triton X-100). Inhibition of LRRK2 was measured by adding serial diluted test compound (final assay concentration of 1% DMSO). A decrease in absorption at 340 nm was monitored continuously for 6 h at 30° C. on a multi-mode microplate reader (BioTek). The reaction rate was calculated using the 2-3 h time frame. The reaction rate at each concentration of compound was converted to percent inhibition using controls (i.e., reaction with no test compound and reaction with a known inhibitor) and IC50 values were calculated using software routines in Prism (GraphPad software).

ULK2 kinase = biological target: T3, ULK2 kinase (Homo sapiens, UniProt Q8IYT8); assay: Biochemical assay for ULK2 (coupled pyruvate kinase/lactate dehydrogenase assay); details: 1 mM ATP, 1 nM ULK2; read-out: ULK2 (inhibition of biochemical activity), IC50
T3 construct: (residues 1-306 with N-terminal GST and His tag; ID NO: 2); purchased Signal Chem U02-11G
Experimental: Biochemical Assay for ULK2 (SEQ. ID NO: 2)
Activity of ULK2 kinase was determined spectroscopically using a coupled pyruvate kinase/lactate dehydrogenase assay that continuously monitors the ATP hydrolysis-dependent oxidation of NADH (e.g., Schindler et al. Science (2000) 289: 1938-1942). Assays were conducted in 384-well plates (100 μL final volume) using 1 nM ULK2 (Signal Chem U02-11G), 200 μM ULKtide, 1.5 units pyruvate kinase, 2.1 units lactate dehydrogenase, 1 mM phosphoenol pyruvate, 0.28 mM NADH and 1 mM ATP in assay buffer (100 mM Tris, pH 7.5, 15 mM MgCl2, 0.5 mM DTT, 0.1% octyl-glucoside, 0.002% (w/v) BSA, and 0.002% Triton X-100). Inhibition of ULK2 was measured by adding serial diluted test compound (final assay concentration of 1% DMSO). A decrease in absorption at 340 nm was monitored continuously for 6 h at 30° C. on a multi-mode microplate reader (BioTek). The reaction rate was calculated using the 2-3 h time frame. The reaction rate at each concentration of compound was converted to percent inhibition using controls (i.e., reaction with no test compound and reaction with a known inhibitor) and IC50 values were calculated by fitting a four-parameter sigmoidal curve to the data using Prism (GraphPad software).

T2 sequence (Q5S007 with tags, fused parts or gaps): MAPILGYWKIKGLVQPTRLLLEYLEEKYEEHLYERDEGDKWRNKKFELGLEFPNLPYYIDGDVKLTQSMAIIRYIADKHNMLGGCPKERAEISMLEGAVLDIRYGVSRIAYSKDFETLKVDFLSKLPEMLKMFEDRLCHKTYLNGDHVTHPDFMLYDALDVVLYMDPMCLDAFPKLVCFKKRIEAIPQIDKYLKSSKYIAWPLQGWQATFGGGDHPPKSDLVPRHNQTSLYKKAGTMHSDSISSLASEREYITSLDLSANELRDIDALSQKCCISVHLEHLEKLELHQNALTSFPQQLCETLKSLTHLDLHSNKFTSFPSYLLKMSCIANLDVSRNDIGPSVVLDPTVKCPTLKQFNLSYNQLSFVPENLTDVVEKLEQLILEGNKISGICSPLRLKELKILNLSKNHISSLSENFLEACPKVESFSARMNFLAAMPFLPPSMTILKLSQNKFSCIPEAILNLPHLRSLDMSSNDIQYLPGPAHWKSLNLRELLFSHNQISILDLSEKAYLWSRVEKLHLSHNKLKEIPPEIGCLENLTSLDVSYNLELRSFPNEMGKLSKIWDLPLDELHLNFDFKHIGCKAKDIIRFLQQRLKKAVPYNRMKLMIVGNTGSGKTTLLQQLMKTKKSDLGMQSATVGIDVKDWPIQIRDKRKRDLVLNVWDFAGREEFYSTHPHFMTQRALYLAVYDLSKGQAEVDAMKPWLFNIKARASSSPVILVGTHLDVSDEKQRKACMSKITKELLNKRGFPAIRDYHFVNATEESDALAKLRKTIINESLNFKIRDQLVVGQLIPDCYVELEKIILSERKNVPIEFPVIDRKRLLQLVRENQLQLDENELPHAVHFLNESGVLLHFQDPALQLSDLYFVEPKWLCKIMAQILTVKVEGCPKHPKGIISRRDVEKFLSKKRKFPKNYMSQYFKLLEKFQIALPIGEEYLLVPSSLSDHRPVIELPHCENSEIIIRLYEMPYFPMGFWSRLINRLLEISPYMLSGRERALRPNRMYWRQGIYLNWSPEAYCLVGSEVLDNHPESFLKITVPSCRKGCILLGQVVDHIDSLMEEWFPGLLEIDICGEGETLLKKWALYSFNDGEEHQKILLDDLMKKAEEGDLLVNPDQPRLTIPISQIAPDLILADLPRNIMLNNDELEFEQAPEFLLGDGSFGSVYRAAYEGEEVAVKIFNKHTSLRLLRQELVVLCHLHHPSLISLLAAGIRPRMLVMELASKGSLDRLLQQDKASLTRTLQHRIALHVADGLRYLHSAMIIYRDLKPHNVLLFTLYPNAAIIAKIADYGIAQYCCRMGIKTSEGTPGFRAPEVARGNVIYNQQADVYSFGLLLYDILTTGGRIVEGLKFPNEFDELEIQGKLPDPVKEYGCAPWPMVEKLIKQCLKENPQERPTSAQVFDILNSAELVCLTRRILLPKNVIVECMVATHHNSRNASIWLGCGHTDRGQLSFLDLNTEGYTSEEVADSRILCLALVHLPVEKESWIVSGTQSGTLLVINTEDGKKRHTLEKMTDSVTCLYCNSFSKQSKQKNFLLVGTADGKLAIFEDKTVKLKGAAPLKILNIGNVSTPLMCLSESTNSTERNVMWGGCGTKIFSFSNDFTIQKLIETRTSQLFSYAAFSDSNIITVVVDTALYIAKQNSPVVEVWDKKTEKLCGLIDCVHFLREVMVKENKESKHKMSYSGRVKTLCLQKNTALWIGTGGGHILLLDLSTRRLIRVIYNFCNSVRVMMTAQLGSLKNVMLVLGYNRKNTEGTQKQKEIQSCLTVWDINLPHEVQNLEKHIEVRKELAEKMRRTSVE
T3 sequence (Q8IYT8 with tags, fused parts or gaps): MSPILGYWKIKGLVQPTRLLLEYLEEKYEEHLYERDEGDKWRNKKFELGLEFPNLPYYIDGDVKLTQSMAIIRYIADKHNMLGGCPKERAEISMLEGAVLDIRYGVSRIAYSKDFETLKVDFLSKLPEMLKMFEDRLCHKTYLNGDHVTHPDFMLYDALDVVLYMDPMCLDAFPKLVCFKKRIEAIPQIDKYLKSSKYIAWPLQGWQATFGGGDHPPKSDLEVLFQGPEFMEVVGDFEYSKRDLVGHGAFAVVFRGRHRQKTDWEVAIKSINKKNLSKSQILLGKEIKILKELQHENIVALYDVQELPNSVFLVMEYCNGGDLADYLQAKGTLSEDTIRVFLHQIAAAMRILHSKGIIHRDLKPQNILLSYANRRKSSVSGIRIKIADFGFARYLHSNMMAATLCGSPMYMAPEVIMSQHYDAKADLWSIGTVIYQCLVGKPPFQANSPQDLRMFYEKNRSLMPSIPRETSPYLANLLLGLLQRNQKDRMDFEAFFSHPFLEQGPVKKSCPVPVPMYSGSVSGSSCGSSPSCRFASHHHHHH

pIC50 (ULK1 kinase) | pIC50 [1] | pIC50 [2] | pIC50 (LRRK2 kinase) | pIC50 (ULK2 kinase) | Compound
≥ 8.00 | ≥ 7.00 | ≥ 7.00 | – | – | CC/C(Nc1cnn(C2CCN(C(C)C)CC2)c1)=C1/C(=O)Nc2ccc(C(=O)NCC3CCC3)cc21 [Example 43]
7.00 to 8.00 | 6.52 to 7.00 | ≥ 7.00 | – | – | CC/C(Nc1cccc(N2CCN(C(C)C)CC2)c1)=C1/C(=O)Nc2ccc(C(=O)NC[C@H]3CCCO3)cc21 [Example 46]
6.30 to 7.00 | < 6.22 | – | ≥ 7.00 | 6.30 to 7.00 | CC/C(Nc1cnn(C(C)C)c1)=C1/C(=O)Nc2ccc(C(C)=O)cc21 [Example 177]
≥ 8.00 | ≥ 7.00 | – | ≥ 7.00 | – | CC/C(Nc1cnn(CC)c1)=C1/C(=O)Nc2ccc(C(=O)NCC3(C(F)(F)F)CC3)cc21 [Example 179]
≥ 8.00 | 6.52 to 7.00 | – | ≥ 7.00 | – | CC/C(Nc1cnn(C(F)F)c1)=C1/C(=O)Nc2ccc(C(=O)NCC3(C(F)(F)F)CC3)cc21 [Example 180]
≥ 8.00 | ≥ 7.00 | – | ≥ 7.00 | – | CC/C(Nc1cnn(CC(F)F)c1)=C1/C(=O)Nc2ccc(C(=O)NCC3(C(F)(F)F)CC3)cc21 [Example 181]
